This passage reports viability, Ki and IC50 results from ChEMBL document CHEMBL5625274, “Improved synthesis, molecular modeling and anti-inflammatory activity of new fluorinated dihydrofurano-naphthoquinone compounds” (Bioorg Med Chem Lett, 2024).

“And” between values parts separate entries of the source, which are not always exact repeats. Equal entries are not always repeated. Bounds are passed on as bounds.

Data set [1] is described as follows: in vitro. To be noted: mouse, RAW264.7 cells; at 2 µg/mL.
Another data set addresses T1, Prostaglandin E synthase (Homo sapiens, UniProt O14684).
T1 sequence (O14684 whole entry): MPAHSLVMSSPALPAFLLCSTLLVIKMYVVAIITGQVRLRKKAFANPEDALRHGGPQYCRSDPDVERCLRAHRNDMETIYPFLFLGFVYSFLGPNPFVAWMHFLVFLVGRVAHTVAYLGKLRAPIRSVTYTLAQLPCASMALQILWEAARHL

The nature of data set [2]: in vitro. The note with it: mouse, RAW264.7 cells; at 32 µg/mL.
The subject of data set [3] is RAW264.7. The data set can be described thus: cells. The note with it: Mus musculus.
Data set [4] in a line: in vitro. To be noted: mouse, RAW264.7 cells.
The nature of data set [5]: in vitro. To be noted: mouse, RAW264.7 cells; at 8 µg/mL.
The nature of data set [6]: in vitro. The note with it: mouse, RAW264.7 cells; at 0.5 µg/mL.
The subject of data set [7] is RAW264.7. The experiment in a line: cells. To be noted: Mus musculus. This is another data set of the same source.
Data set [8] deals with RAW264.7. The data set can be described thus: cells. The note with it: Mus musculus. The source holds these as a separate data set.

The viability is a per cent measure of how many cells are alive, often set against a control. The low end stands for more harm to the cells, the high end for less harm to the cells. In general, Ki refers to a dissociation constant, usually derived from enzyme kinetics or from competition with a known ligand. Higher therefore signals lower affinity. As a reminder, the IC50 is the concentration that inhibits the measured activity by half. A lower IC50 goes with greater potency in that assay. For `COc1cc(F)c([C@@H]2C3=C(O[C@H]2C(=O)c2ccccc2)C(=O)c2ccccc2C3=O)cc1F`, in “in vitro [1]”, the viability at 2 ug/mL is 60%. Moreover, on Prostaglandin E synthase, the affinity corresponds to a Ki of 184 µM. In “in vitro [2]”, this compound came in with a viability at 32 ug/mL of 16%. Also, in the data set with RAW264.7 [3], the IC50 is 3.92 µM and 1.75 µg/mL. This compound registered a viability at 128 ug/mL in the data set “in vitro [4]” of 15%. In addition, the viability at 8 ug/mL in “in vitro [5]” was 59%. In “in vitro [6]”, the viability at 0.5 ug/mL was found to be 91%.
In the case of `COc1ccc([C@@H]2C3=C(O[C@H]2C(=O)c2ccccc2)C(=O)c2ccccc2C3=O)c(F)c1`, in the data set “in vitro [1]”, the viability at 2 ug/mL was 40%. This compound also came in with a viability at 32 ug/mL in the data set “in vitro [2]” of 35%. The same compound came in with a viability at 128 ug/mL in “in vitro [4]” of 23%. This compound also had a viability at 8 ug/mL in “in vitro [5]” of 38%. In “in vitro [6]”, the viability at 0.5 ug/mL stood at 100%.
Compound `COc1ccc([C@@H]2C3=C(O[C@H]2C(=O)c2ccccc2)C(=O)c2ccccc2C3=O)c(C(F)(F)F)c1` registered a viability at 2 ug/mL in “in vitro [1]” of 100%. Besides, in “in vitro [2]”, the viability at 32 ug/mL amounted to 100%. Also, the 50% inhibitory concentration (IC50) in the data set with RAW264.7 [3] is > 268 µM and > 128 µg/mL. In “in vitro [4]”, this compound displayed a viability at 128 ug/mL of 40%. Besides, the viability at 8 ug/mL in the data set “in vitro [5]” turned out to be 100%. The compound further registered a viability at 0.5 ug/mL in the data set “in vitro [6]” of 100%.
Regarding `O=C1C2=C(C(=O)c3ccccc31)[C@@H](c1ccc(O)cc1F)[C@H](C(=O)c1ccccc1)O2`, the viability at 2 ug/mL in the data set “in vitro [1]” was 22%. For the same compound, the viability at 32 ug/mL in “in vitro [2]” came out at 15%. Further, the viability at 128 ug/mL in the data set “in vitro [4]” turned out to be 3%. Moreover, the viability at 8 ug/mL in the data set “in vitro [5]” is 19%. The viability at 0.5 ug/mL in the data set “in vitro [6]” was 29%.
On to `O=C1C2=C(C(=O)c3ccccc31)[C@@H](c1ccc(Oc3ccc(F)cc3)cc1)[C@H](C(=O)c1ccccc1)O2`, for which, in the data set “in vitro [1]”, the viability at 2 ug/mL was 99%. The compound also gave a viability at 32 ug/mL in the data set “in vitro [2]” of 99%. The half-inhibitory concentration (IC50) with RAW264.7 [3] was 222 µM and 109 µg/mL. In the data set “in vitro [4]”, this compound registered a viability at 128 ug/mL of 29%. This compound showed a viability at 8 ug/mL in “in vitro [5]” of 99%. This compound registered a viability at 0.5 ug/mL in the data set “in vitro [6]” of 100%.
In the case of `CCCCc1cc2c(o1)C(=O)c1ccccc1C2=O`, the half-inhibitory concentration (IC50) in the data set on RAW264.7 [7] and in the data set with RAW264.7 [8] was > 2.9 µM throughout.
`O=C1C2=C(C(=O)c3ccccc31)[C@@H](c1ccccc1F)[C@H](C(=O)c1ccccc1)O2` came in with a viability at 2 ug/mL in “in vitro [1]” of 32%. Further, in the data set “in vitro [2]”, the viability at 32 ug/mL came out at 15%. The compound further had a viability at 128 ug/mL in “in vitro [4]” of 0%. In addition, the viability at 8 ug/mL in the data set “in vitro [5]” came out at 20%. The same compound gave a viability at 0.5 ug/mL in the data set “in vitro [6]” of 81%.
Take `COc1c(F)cc([C@@H]2C3=C(O[C@H]2C(=O)c2ccccc2)C(=O)c2ccccc2C3=O)cc1F`: in “in vitro [1]”, the viability at 2 ug/mL came out at 67%. In the data set “in vitro [2]”, this compound showed a viability at 32 ug/mL of 51%. Also, the concentration for half-maximal inhibition (IC50) with RAW264.7 [3] was 3.52 µM and 1.57 µg/mL. Further, the viability at 128 ug/mL in “in vitro [4]” came out at 22%. The compound also showed a viability at 8 ug/mL in “in vitro [5]” of 64%. Also, in the data set “in vitro [6]”, the viability at 0.5 ug/mL amounted to 85%.
For the compound `O=C1C2=C(C(=O)c3ccccc31)[C@@H](c1ccc(O)c(F)c1)[C@H](C(=O)c1ccccc1)O2`, the viability at 2 ug/mL in the data set “in vitro [1]” turned out to be 45%. In addition, the viability at 32 ug/mL in the data set “in vitro [2]” worked out at 10%. In the data set “in vitro [4]”, this compound registered a viability at 128 ug/mL of 4%. This compound also registered a viability at 8 ug/mL in the data set “in vitro [5]” of 41%. In addition, the viability at 0.5 ug/mL in the data set “in vitro [6]” came to 99%.
For the compound `O=C1C2=C(C(=O)c3ccccc31)[C@@H](c1ccc(F)cc1)[C@H](C(=O)c1ccccc1)O2`, in “in vitro [1]”, the viability at 2 ug/mL was 100%. In the data set “in vitro [2]”, this compound showed a viability at 32 ug/mL of 33%. Further, the half-inhibitory concentration (IC50) in the data set with RAW264.7 [3] was 15.8 µM and 6.28 µg/mL. In the data set “in vitro [4]”, this compound displayed a viability at 128 ug/mL of 2%. In the data set “in vitro [5]”, this compound yielded a viability at 8 ug/mL of 69%. For the same compound, the viability at 0.5 ug/mL in “in vitro [6]” was found to be 100%.
In turn, `COc1ccc([C@@H]2C3=C(O[C@H]2C(=O)c2ccccc2)C(=O)c2ccccc2C3=O)cc1F` showed a viability at 2 ug/mL in “in vitro [1]” of 60%. Besides, at Prostaglandin E synthase, affinity was put at a Ki of 241 µM. In “in vitro [2]”, this compound registered a viability at 32 ug/mL of 41%. Moreover, the IC50 in the data set on RAW264.7 [3] was 1.54 µM and 0.66 µg/mL. In the data set “in vitro [4]”, this compound showed a viability at 128 ug/mL of 38%. In “in vitro [5]”, this compound returned a viability at 8 ug/mL of 51%. Further, the viability at 0.5 ug/mL in the data set “in vitro [6]” was found to be 71%.
In the case of `O=C1C2=C(C(=O)c3ccccc31)[C@@H](c1ccc(OC(F)F)c(O)c1)[C@H](C(=O)c1ccccc1)O2`, the viability at 2 ug/mL in “in vitro [1]” was found to be 46%. The same compound had a viability at 32 ug/mL in the data set “in vitro [2]” of 5%. In the data set “in vitro [4]”, this compound showed a viability at 128 ug/mL of 2%. In addition, in “in vitro [5]”, the viability at 8 ug/mL is 15%. The compound further had a viability at 0.5 ug/mL in “in vitro [6]” of 71%.
Turning to `O=C1C2=C(C(=O)c3ccccc31)[C@@H](c1ccc(OC(F)(F)F)cc1)[C@H](C(=O)c1ccccc1)O2`, the viability at 2 ug/mL in the data set “in vitro [1]” amounted to 100%. In addition, the viability at 32 ug/mL in the data set “in vitro [2]” is 70%. Besides, in the data set with RAW264.7 [3], the IC50 is > 276 µM and > 128 µg/mL. In the data set “in vitro [4]”, this compound gave a viability at 128 ug/mL of 34%. Also, the viability at 8 ug/mL in the data set “in vitro [5]” is 100%. In addition, the viability at 0.5 ug/mL in the data set “in vitro [6]” was 100%.
Take `Cc1cc2c(o1)C(=O)c1ccccc1C2=O`: the concentration for half-maximal inhibition (IC50) in the data set on RAW264.7 [7] and in the data set with RAW264.7 [8] was < 2.9 µM throughout.
As to `CCc1cc2c(o1)C(=O)c1ccccc1C2=O`, the concentration for half-maximal inhibition (IC50) in the data set with RAW264.7 [7] and with RAW264.7 [8] was > 2.9 µM throughout.
